In patent US20210321627A1, “NON-PESTICIDAL ATTRACT AND KILL COMPOSITION FOR CONTROL OF INSECTS” (Oregon State University, priority 2018, published 2021):

Test system: D. suzukii
Test: Laboratory choice assays (double-choice ventilated arenas)
Format: in vivo, Drosophila suzukii
Conditions: vs flies selecting deionized water and flies not making any choice; 24 h; P<0.001
Procedure: Constant and uniform airflow was created within each of the containers using a vacuum at 1.5 L mid′ from the base and through the upper portion of each of the respective containers. Attraction to the matrix containing the ingredients of the exemplary insect control composition was verified in double-choice behavioral experiments. Arenas were prepared using 2-L transparent Griffin-style graduated low-form plastic beakers (Nalgene, Rochester, N.Y.). For each beaker, 9 ventilation holes (1 cm diameter) were cut along the circumference approximately 6 cm from the base. The holes were covered with fine white mesh in order to prevent D. suzukii individuals from escaping. The top of each beaker was drilled and connected to a 0.5 cm diameter plastic tube providing a vacuum in order to create a constant and uniform air flow (1.5 L min^−1) within the containers. Beakers were placed upside down on a flat work surface covered by white paper sheets. Two 25 mL plastic cups (Dart Container Corporation, Mason, Mich.) containing ˜10 mL of water and 5 g of arabinogalactan were placed at the base of each beaker. Both cups were covered with a wax film (Parafilm® M, Pechiney, Chicago, Ill.). 3 holes (˜0.3 cm diameter) were cut on the film coverings in order to allow the flies to enter the cups. […]

arabinogalactan
number of flies selecting deli cups containing arabinogalactan: significantly higher
